Earlier results on two molecules are cited in patent US20240366648A1, “NAD-AUGMENTATION THERAPY FOR PARKINSON'S DISEASE” (Vestlandets Innovasjonsselskap AS (VIS), priority 2021, published 2024).

Series [1] relates to PD patients. As to conditions: cited from earlier work.
Series [2] addresses T1, a-synuclein (Homo sapiens, UniProt P37840).
T1 construct: host or cells: PD patients in a clinical trial (endogenous protein)
The settings on record: in vivo; cited from earlier work.

`C#CCN(C)[C@H](C)Cc1ccccc1` [L-Deprenyl, selegiline]: in series [1], the “decrease of motor decline compared to tocopherol” value is recorded as 50%.

B1: cinpanemab: a-synuclein antibody drug (antibody, chains of the INN, looked up, V domains shown)
VH: EVQLVESGGGLVEPGGSLRLSCAVSGFDFEKAWMSWVRQAPGQGLQWVARIKSTADGGTTSYAAPVEGRFIISRDDSRNMLYLQMNSLKTEDTAVYYCTSAHWGQGTLVTVSS
VL: SYELTQPPSVSVSPGQTARITCSGEALPMQFAHWYQQRPGKAPVIVVYKDSERPSGVPERFSGSSSGTTATLTITGVQAEDEADYYCQSPDSTNTYEVFGGGTKLTVL
With B1, the “clinical trial outcome in PD” value in series [2] is “did not achieve proof-of-concept and missed its primary and secondary endpoints”.
